The test system of assay [1] is Total ATXN3 (tATXN3) protein. Put plainly: Endogenous Total ATXN3 (tATXN3) Protein Assay (MSD immunoassay of cell lysates). The format is cell-based. As to conditions: average IC50, total ATXN3 protein in cell lysate after 48 h with compound (Table 1). The method, boiled down: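 By electrochemiluminescent MSD sandwich immunoassay (mouse monoclonal capture, rabbit monoclonal and SULFO-TAG anti-rabbit detection), endogenous ATXN3 was quantified in lysates of cells treated 48 h at 37° C at 10,000 cells/well. Treatment used a 7-point 3.16-fold duplicate dilution series, with average IC50 grouped into star categories.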

Assay [2] has as its system ATXN3 pre-mRNA. Put plainly: RT-qPCR Assay to Quantify Exon 4 Skipping in ATXN3 pre-mRNA in Cells. The format is cell-based. Particulars: percent exon 4 skipping in ATXN3 pre-mRNA, RT-qPCR of cell lysates; average IC50. In a few lines: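 IC50 derives from a dose-response fit of percent exon 4 skipping, quantified by RT-qPCR on crude lysates. Compounds tested as 7-point 3.16-fold dilutions in duplicate; cells (10,000/well) were exposed for 24 h at 37 °C before lysis.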

The structures appear in SMILES notation.

With `N[C@@H]1CC=CC[C@H]1c1sc2c(NCc3cccs3)cc(Cl)nc2c1I.N[C@H]1CC=CC[C@@H]1c1sc2c(NCc3cccs3)cc(Cl)nc2c1I` (mixture of isomers) [Compound 365, 2-((1R,6R)-6-aminocyclohex-3-en-1-yl)-5-chloro-3-iodo-N-(thiophen-2-ylmethyl)thieno[3,2-b]pyridin-7-amine and 2-((1S,6S)-6-aminocyclohex-3-en-1-yl)-5-chloro-3-iodo-N-(thiophen-2-ylmethyl)thieno[3,2-b]pyridin-7-amine], the IC50 in assay [1] and in assay [2] was 30 to 300 nM in each case.
On to `N[C@@H]1CC=CC[C@H]1c1sc2c(NCc3cccs3)nc(Cl)nc2c1Cl.N[C@H]1CC=CC[C@@H]1c1sc2c(NCc3cccs3)nc(Cl)nc2c1Cl` (mixture of isomers) [Compound 397, 6-((1R,6R)-6-aminocyclohex-3-en-1-yl)-2,7-dichloro-N-(thiophen-2-ylmethyl)thieno[3,2-d]pyrimidin-4-amine and 6-((1S,6S)-6-aminocyclohex-3-en-1-yl)-2,7-dichloro-N-(thiophen-2-ylmethyl)thieno[3,2-d]pyrimidin-4-amine], for which the IC50 in assay [1] and in assay [2] was 300 to 1000 nM throughout.
Take `N[C@@H]1CCCC[C@H]1c1c(Cl)c2nc(Cl)nc(NCc3ccccc3)c2n1C(F)F.N[C@H]1CCCC[C@@H]1c1c(Cl)c2nc(Cl)nc(NCc3ccccc3)c2n1C(F)F` (mixture of isomers) [Compound 418, 6-((1S,2S)-2-aminocyclohexyl)-N-benzyl-2,7-dichloro-5-(difluoromethyl)-5H-pyrrolo[3,2-d]pyrimidin-4-amine and 6-((1R,2R)-2-aminocyclohexyl)-N-benzyl-2,7-dichloro-5-(difluoromethyl)-5H-pyrrolo[3,2-d]pyrimidin-4-amine]: the IC50 in assay [1] and in assay [2] was 30 to 300 nM each time.
Take `N[C@@H]1CC=CC[C@H]1c1sc2c(NCc3cccs3)cc(Cl)nc2c1Cl.N[C@H]1CC=CC[C@@H]1c1sc2c(NCc3cccs3)cc(Cl)nc2c1Cl` (mixture of isomers) [Compound 431, 2-((1R,6R)-6-aminocyclohex-3-en-1-yl)-3,5-dichloro-N-(thiophen-2-ylmethyl)thieno[3,2-b]pyridin-7-amine and 2-((1S,6S)-6-aminocyclohex-3-en-1-yl)-3,5-dichloro-N-(thiophen-2-ylmethyl)thieno[3,2-b]pyridin-7-amine]: the 50% inhibitory concentration (IC50) in assay [1] and in assay [2] was not above 30 nM in each case.
Regarding `N[C@H]1CCCN(c2ccccc2)[C@H]1c1sc2c(NCc3cccs3)cc(Cl)nc2c1Br` (racemic) [Compound 125, 2-((2R,3S)-3-amino-1-phenylpiperidin-2-yl)-3-bromo-5-chloro-N-(thiophen-2-ylmethyl)thieno[3,2-b]pyridin-7-amine and 2-((2S,3R)-3-amino-1-phenylpiperidin-2-yl)-3-bromo-5-chloro-N-(thiophen-2-ylmethyl)thieno[3,2-b]pyridin-7-amine], the IC50 in assay [1] and in assay [2] was more than 1000 nM throughout.
As to `N[C@@H]1CC=CC[C@@H]1c1sc2c(NCc3cccs3)cc(Cl)nc2c1Br.N[C@H]1CC=CC[C@H]1c1sc2c(NCc3cccs3)cc(Cl)nc2c1Br` (racemic) [Compound 144, 2-((1S,6RS)-6-aminocyclohex-3-en-1-yl)-3-bromo-5-chloro-N-(thiophen-2-ylmethyl)thieno[3,2-b]pyridin-7-amine and 2-((1R,6SR)-6-aminocyclohex-3-en-1-yl)-3-bromo-5-chloro-N-(thiophen-2-ylmethyl)thieno[3,2-b]pyridin-7-amine], the IC50 in assay [1] and in assay [2] was not above 30 nM each time.
`N[C@H]1CCCC[C@@H]1c1sc2c(NCc3cccs3)cc(Cl)nc2c1Cl` (single isomer, unassigned) [Compound 34, 2-((1S,2S)-2-aminocyclohexyl)-3,5-dichloro-N-(thiophen-2-ylmethyl)thieno[3,2-b]pyridin-7-amine or 2-((1R,2R)-2-aminocyclohexyl)-3,5-dichloro-N-(thiophen-2-ylmethyl)thieno[3,2-b]pyridine-7-amine]: the IC50 in assay [1] and in assay [2] was not above 30 nM throughout.
On to `N[C@@H]1CCCC[C@H]1c1sc2c(NCc3cccs3)cc(Cl)nc2c1Cl` (single isomer, unassigned) [Compound 36, 2-((1R,2R)-2-aminocyclohexyl)-3,5-dichloro-N-(thiophen-2-ylmethyl)thieno[3,2-b]pyridin-7-amine or 2-((1S,2S)-2-aminocyclohexyl)-3,5-dichloro-N-(thiophen-2-ylmethyl)thieno[3,2-b]pyridine-7-amine], for which the IC50 in assay [1] and in assay [2] was more than 1000 nM in each case.
Turning to `CCc1c([C@@H]2CCCC[C@H]2N)sc2c(NCc3cccs3)cc(Cl)nc12` (single isomer, unassigned) [Compound 39, 2-((1R,2R)-2-aminocyclohexyl)-5-chloro-3-ethyl-N-(thiophen-2-ylmethyl)thieno[3,2-b]pyridin-7-amine or 2-((1S,2S)-2-aminocyclohexyl)-5-chloro-3-ethyl-N-(thiophen-2-ylmethyl)thieno[3,2-b]pyridine-7-amine], the IC50 in assay [1] and in assay [2] was more than 1000 nM throughout.
Regarding `CCc1c([C@H]2CCCC[C@@H]2N)sc2c(NCc3cccs3)cc(Cl)nc12` (single isomer, unassigned) [Compound 40, 2-((1S,2S)-2-aminocyclohexyl)-5-chloro-3-ethyl-N-(thiophen-2-ylmethyl)thieno[3,2-b]pyridin-7-amine or 2-((1R,2R)-2-aminocyclohexyl)-5-chloro-3-ethyl-N-(thiophen-2-ylmethyl)thieno[3,2-b]pyridin-7-amine], the IC50 in assay [1] and in assay [2] was 30 to 300 nM in each case.
Consider `N[C@@H]1CCCO[C@H]1c1sc2c(NCc3ccco3)nc(Cl)nc2c1Br` (single isomer, unassigned) [Compound 42, 6-((2R,3R)-3-aminotetrahydro-2H-pyran-2-yl)-7-bromo-2-chloro-N-(furan-2-ylmethyl)thieno[3,2-d]pyrimidin-4-amine or 6-((2S,3S)-3-aminotetrahydro-2H-pyran-2-yl)-7-bromo-2-chloro-N-(furan-2-ylmethyl)thieno[3,2-d]pyrimidin-4-amine], for which the IC50 in assay [1] and in assay [2] was 300 to 1000 nM each time.
For the compound `Cc1c([C@@H]2OCCC[C@H]2N)sc2c(NCc3cccs3)cc(Cl)nc12` (single isomer, unassigned) [Compound 44, 2-((2R,3R)-3-aminotetrahydro-2H-pyran-2-yl)-5-chloro-3-methyl-N-(thiophen-2-ylmethyl)thieno[3,2-b]pyridin-7-amine or 2-((2S,3S)-3-aminotetrahydro-2H-pyran-2-yl)-5-chloro-3-methyl-N-(thiophen-2-ylmethyl)thieno[3,2-b]pyridin-7-amine], the IC50 in assay [1] and in assay [2] was more than 1000 nM each time.
Turning to `Cc1c([C@@H]2OCCC[C@H]2N)sc2c(NCc3cccs3)cc(Cl)nc12` (single isomer, unassigned) [Compound 45, 2-((2R,3R)-3-aminotetrahydro-2H-pyran-2-yl)-5-chloro-3-methyl-N-(thiophen-2-ylmethyl)thieno[3,2-b]pyridin-7-amine or 2-((2S,3S)-3-aminotetrahydro-2H-pyran-2-yl)-5-chloro-3-methyl-N-(thiophen-2-ylmethyl)thieno[3,2-b]pyridin-7-amine], the IC50 in assay [1] and in assay [2] was not above 30 nM each time.
In the case of `CCc1c([C@@H]2CCCCC[C@H]2N)sc2c(NCc3cccs3)cc(Cl)nc12` (single isomer, unassigned) [Compound 86, 2-((1R,2R)-2-aminocycloheptyl)-5-chloro-3-ethyl-N-(thiophen-2-ylmethyl)thieno[3,2-b]pyridin-7-amine or 2-((1S,2S)-2-aminocycloheptyl)-5-chloro-3-ethyl-N-(thiophen-2-ylmethyl)thieno[3,2-b]pyridin-7-amine], the IC50 in assay [1] and in assay [2] was more than 1000 nM in each case.
As to `CCc1c([C@H]2CCCCC[C@@H]2N)sc2c(NCc3cccs3)cc(Cl)nc12` (single isomer, unassigned) [Compound 87, 2-((1S,2S)-2-aminocycloheptyl)-5-chloro-3-ethyl-N-(thiophen-2-ylmethyl)thieno[3,2-b]pyridin-7-amine or 2-((1R,2R)-2-aminocycloheptyl)-5-chloro-3-ethyl-N-(thiophen-2-ylmethyl)thieno[3,2-b]pyridin-7-amine], the IC50 in assay [1] and in assay [2] was 30 to 300 nM each time.
Turning to `N[C@H]1CCC[C@@H]1c1sc2c(NCc3cccs3)cc(Cl)nc2c1Cl` [Compound 1, 2-((1S,2S)-2-aminocyclopentyl)-3,5-dichloro-N-(thiophen-2-ylmethyl)thieno[3,2-b]pyridin-7-amine], the IC50 in assay [1] and in assay [2] was not above 30 nM in each case.
Regarding `N[C@@H]1CCC[C@H]1c1sc2c(NCc3cccs3)cc(Cl)nc2c1Cl` [Compound 2, 2-((1R,2R)-2-aminocyclopentyl)-3,5-dichloro-N-(thiophen-2-ylmethyl)thieno[3,2-b]pyridin-7-amine], the IC50 in assay [1] and in assay [2] was more than 1000 nM throughout.
With `N[C@@H]1CCC[C@@H]1c1sc2c(NCc3cccs3)cc(Cl)nc2c1Cl` [Compound 3, 2-((1S,2R)-2-aminocyclopentyl)-3,5-dichloro-N-(thiophen-2-ylmethyl)thieno[3,2-b]pyridin-7-amine], the IC50 in assay [1] and in assay [2] was more than 1000 nM each time.
`N[C@H]1CCC[C@H]1c1sc2c(NCc3cccs3)cc(Cl)nc2c1Cl` [Compound 4, 2-((1R,2S)-2-aminocyclopentyl)-3,5-dichloro-N-(thiophen-2-ylmethyl)thieno[3,2-b]pyridin-7-amine]: the IC50 in assay [1] and in assay [2] was 30 to 300 nM each time.

These data come from patent publication US20250382305A1 (PTC THERAPEUTICS, INC., priority 2022, published 2025).
